# Measured values reported in ChEMBL document CHEMBL5505979, “Novel aminothiazoximone-corbelled ethoxycarbonylpyrimidones with antibiofilm activity to conquer Gram-negative bacteria through potential multitargeting effects” (Eur J Med Chem, 2024).
# Calls of active or inactive are those of the source. No cut-off for these calls is given here.
# Columns and labels:
# Staphylococcus aureus [1] = assay: Anti-bacterial activity against methicillin-resistant Staphylococcus aureus N315 assessed as inhibition of bacterial growth; assay type: functional; conditions: Staphylococcus aureus, N315; read-out: MIC
# Staphylococcus aureus [2] = assay: Anti-bacterial activity against methicillin-resistant Staphylococcus aureus ATCC 43300 assessed as inhibition of bacterial growth; assay type: functional; conditions: Staphylococcus aureus, ATCC 43300; read-out: MIC
# Enterococcus faecalis = assay: Anti-bacterial activity against Enterococcus faecalis V583 assessed as inhibition of bacterial growth; assay type: functional
# Klebsiella pneumoniae = assay: Anti-bacterial activity against Klebsiella pneumoniae KPN325 assessed as inhibition of bacterial growth; assay type: functional; conditions: Klebsiella pneumoniae, KPN325; read-out: MIC
# Staphylococcus aureus [3] = assay: Anti-bacterial activity against Staphylococcus aureus ATCC 1708 assessed as inhibition of bacterial growth; assay type: functional; conditions: Staphylococcus aureus, ATCC 1708; read-out: MIC
# Staphylococcus aureus [4] = assay: Anti-bacterial activity against Staphylococcus aureus ATCC 25923 assessed as inhibition of bacterial growth; assay type: functional; conditions: Staphylococcus aureus, ATCC 25923; read-out: MIC
# Staphylococcus aureus [5] = assay: Anti-bacterial activity against Staphylococcus aureus ATCC 29213 assessed as inhibition of bacterial growth; assay type: functional; conditions: Staphylococcus aureus, ATCC 29213; read-out: MIC
# Staphylococcus aureus [6] = assay: Anti-bacterial activity against Staphylococcus aureus ATCC 12600 assessed as inhibition of bacterial growth; assay type: functional; conditions: Staphylococcus aureus, ATCC 12600; read-out: MIC
# Staphylococcus aureus [7] = assay: Anti-bacterial activity against Staphylococcus aureus ATCC 6538 assessed as inhibition of bacterial growth; assay type: functional
# Staphylococcus aureus [8] = assay: Anti-bacterial activity against Staphylococcus aureus CMCC (B) 26003 assessed as inhibition of bacterial growth; assay type: functional
# Staphylococcus aureus [9] = assay: Anti-bacterial activity against Staphylococcus aureus CMCC (B) 26001 assessed as inhibition of bacterial growth; assay type: functional
# Escherichia coli [10] = assay: Anti-bacterial activity against Escherichia coli JM109 assessed as inhibition of bacterial growth; assay type: functional
# Escherichia coli [11] = assay: Anti-bacterial activity against Escherichia coli ATCC 25922 assessed as inhibition of bacterial growth; assay type: functional
# Pseudomonas aeruginosa [12] = assay: Anti-bacterial activity against Pseudomonas aeruginosa ST235 assessed as inhibition of bacterial growth; assay type: functional; conditions: Pseudomonas aeruginosa, ST235; read-out: MIC
# Pseudomonas aeruginosa [13] = assay: Anti-bacterial activity against Pseudomonas aeruginosa ATCC 27853 assessed as inhibition of bacterial growth; assay type: functional; conditions: Pseudomonas aeruginosa, ATCC 27853; read-out: MIC
# Pseudomonas aeruginosa [14] = assay: Anti-bacterial activity against Pseudomonas aeruginosa ATCC 15442 assessed as inhibition of bacterial growth; assay type: functional; conditions: Pseudomonas aeruginosa, ATCC 15442; read-out: MIC
# Pseudomonas aeruginosa [15] = assay: Anti-bacterial activity against Pseudomonas aeruginosa ATCC 9027 assessed as inhibition of bacterial growth; assay type: functional
# Pseudomonas aeruginosa [16] = assay: Anti-bacterial activity against Pseudomonas aeruginosa CMCC (B) 10104 assessed as inhibition of bacterial growth; assay type: functional; conditions: Pseudomonas aeruginosa, CMCC (B) 10104; read-out: MIC
# Acinetobacter baumannii [17] = assay: Anti-bacterial activity against Acinetobacter baumannii R674 assessed as inhibition of bacterial growth; assay type: functional
# Acinetobacter baumannii [18] = assay: Anti-bacterial activity against Acinetobacter baumannii assessed as inhibition of bacterial growth measured after 6-7 th passages at sub-MIC concentration by multiple resistance study; assay type: functional, organism-based
# Escherichia coli [19] = assay: Anti-bacterial activity against Escherichia coli ATCC 25922 assessed as inhibition of bacterial growth measured after 6-7 th passages at sub-MIC concentration by multiple resistance study; assay type: functional, organism-based
# Acinetobacter baumannii [20] = assay: Drug resistance, ratio of MIC for Acinetobacter baumannii after 20 passages exposure to MIC for Acinetobacter baumannii after first exposure; assay type: functional
# Escherichia coli [21] = assay: Drug resistance, ratio of MIC for Escherichia coli ATCC 25922 after 20 passages exposure to MIC for Escherichia coli ATCC 25922 after first exposure; assay type: functional
# Acinetobacter baumannii [22] = assay: (§1) Anti-bacterial activity against Acinetobacter baumannii assessed as fractional inhibitory concentration measured upto 9 hrs in presence of ethyl(E)-6-((4-(2-(2-aminothiazol-4-yl)-2-(methoxyimino)acetyl)piperazin-1-yl)methyl)-4-(2-butyl-4-chloro-1H-imidazole-5-yl)-2-oxo-1,2,3,4-tetrahydropyrimidine-5-carboxylate; assay type: functional
# Escherichia coli [23] = assay: as §1, with “Escherichia coli ATCC 25922” for “Acinetobacter baumannii”; assay type: functional
# Acinetobacter baumannii [24] = assay: Anti-bacterial activity against Acinetobacter baumannii assessed as growth inhibition by measuring optical density measured at 1/8 time of MIC (reference value: 0.156); assay type: functional
# Acinetobacter baumannii [25] = assay: Anti-bacterial activity against Acinetobacter baumannii assessed as growth inhibition by measuring optical density measured at 1/4 time of MIC (reference value: 0.156); assay type: functional
# Acinetobacter baumannii [26] = assay: Anti-bacterial activity against Acinetobacter baumannii assessed as growth inhibition by measuring optical density measured at 1/2 time of MIC (reference value: 0.156); assay type: functional
# Acinetobacter baumannii [27] = assay: Anti-bacterial activity against Acinetobacter baumannii assessed as growth inhibition by measuring optical density measured at 1 time of MIC (reference value: 0.156); assay type: functional
# Acinetobacter baumannii [28] = assay: Anti-bacterial activity against Acinetobacter baumannii assessed as growth inhibition by measuring optical density measured at 2 time of MIC (reference value: 0.156); assay type: functional
# Escherichia coli [29] = assay: Anti-bacterial activity against Escherichia coli ATCC 25922 assessed as growth inhibition by measuring optical density measured at 1/8 times of MIC of norfloxacin by Checkerboard assay (reference value: 0.129); assay type: functional
# Escherichia coli [30] = assay: Anti-bacterial activity against Escherichia coli ATCC 25922 assessed as growth inhibition by measuring optical density measured at 1/4 times of MIC of norfloxacin by Checkerboard assay (reference value: 0.129); assay type: functional
# Escherichia coli [31] = assay: Anti-bacterial activity against Escherichia coli ATCC 25922 assessed as growth inhibition by measuring optical density measured at 1/2 times of MIC of norfloxacin by Checkerboard assay (reference value: 0.129); assay type: functional
# Escherichia coli [32] = assay: Anti-bacterial activity against Escherichia coli ATCC 25922 assessed as growth inhibition by measuring optical density measured at 1 times of MIC of norfloxacin by Checkerboard assay (reference value: 0.129); assay type: functional
# Escherichia coli [33] = assay: Anti-bacterial activity against Escherichia coli ATCC 25922 assessed as growth inhibition by measuring optical density measured at 2 times of MIC of norfloxacin by Checkerboard assay (reference value: 0.129); assay type: functional
# Candida albicans [34] = assay: Anti-fungal activity against Candida albicans assessed as inhibition of fungal growth; assay type: functional; conditions: Candida albicans; read-out: MIC
# Candida albicans [35] = assay: Anti-fungal activity against Candida albicans 90023 assessed as inhibition of fungal growth; assay type: functional
# Candida tropicalis = assay: Anti-fungal activity against Candida tropicalis assessed as inhibition of fungal growth; assay type: functional; conditions: Candida tropicalis; read-out: MIC
# Candida parapsilosis = assay: Anti-fungal activity against Candida parapsilosis assessed as inhibition of fungal growth; assay type: functional; conditions: Lodderomyces parapsilosis; read-out: MIC
Compound,MIC (Staphylococcus aureus [1]),MIC (Staphylococcus aureus [2]),MIC (Enterococcus faecalis),MIC (Klebsiella pneumoniae),MIC (Staphylococcus aureus [3]),MIC (Staphylococcus aureus [4]),MIC (Staphylococcus aureus [5]),MIC (Staphylococcus aureus [6]),MIC (Staphylococcus aureus [7]),MIC (Staphylococcus aureus [8]),MIC (Staphylococcus aureus [9]),MIC (Escherichia coli [10]),MIC (Escherichia coli [11]),MIC (Pseudomonas aeruginosa [12]),MIC (Pseudomonas aeruginosa [13]),MIC (Pseudomonas aeruginosa [14]),MIC (Pseudomonas aeruginosa [15]),MIC (Pseudomonas aeruginosa [16]),MIC (Acinetobacter baumannii [17]),MIC (Candida albicans [34]),further results
CCn1cc(C(=O)O)c(=O)c2cc(F)c(N3CCNCC3)cc21 [NORFLOXACIN],6 µM,3 µM,6 µM,3 µM,3 µM,6 µM,6 µM,6 µM,6 µM,6 µM,6 µM,25 µM,13 µM,6 µM,25 µM,6 µM,6 µM,6 µM,13 µM,,Activity (Acinetobacter baumannii [18]): inactive; Activity (Escherichia coli [19]): inactive; Ratio (Acinetobacter baumannii [20]): 32; Ratio (Escherichia coli [21]): 16; FIC (Acinetobacter baumannii [22]): 0.25; FIC (Escherichia coli [23]): 0.25; OD (Acinetobacter baumannii [24]): 0.155; OD (Acinetobacter baumannii [25]): 0.142; OD (Acinetobacter baumannii [26]): 0.141; OD (Acinetobacter baumannii [27]): 0.138; OD (Acinetobacter baumannii [28]): 0.136; OD (Escherichia coli [29]): 0.125; OD (Escherichia coli [30]): 0.128; OD (Escherichia coli [31]): 0.128; OD (Escherichia coli [32]): 0.129; OD (Escherichia coli [33]): 0.128
CCCCc1nc(Cl)c(C2NC(=O)NC(CN3CCN(CC(=O)c4ccc(C)cc4)CC3)=C2C(=O)OCC)[nH]1 (centres undefined),230 µM,115 µM,58 µM,230 µM,460 µM,58 µM,58 µM,230 µM,230 µM,460 µM,58 µM,29 µM,115 µM,58 µM,230 µM,460 µM,29 µM,230 µM,115 µM,460 µM,MIC (Candida albicans [35]): 230 µM; MIC (Candida tropicalis): 460 µM; MIC (Candida parapsilosis): 460 µM
CCOC(=O)C1=C(CN2CCN(C(=O)/C(=N/OC)c3csc(N)n3)CC2)NC(=O)NC1c1ccc(C(F)(F)F)cc1 (centres undefined),108 µM,27 µM,27 µM,108 µM,27 µM,27 µM,27 µM,27 µM,54 µM,108 µM,54 µM,27 µM,27 µM,54 µM,54 µM,54 µM,54 µM,27 µM,27 µM,430 µM,MIC (Candida albicans [35]): 7 µM; MIC (Candida tropicalis): 430 µM; MIC (Candida parapsilosis): 430 µM
CCOC(=O)C1=C(CN2CCNCC2)NC(=O)NC1c1ccc2c(c1)c1ccccc1n2CC (centres undefined),222 µM,111 µM,28 µM,222 µM,222 µM,222 µM,14 µM,222 µM,111 µM,222 µM,111 µM,222 µM,222 µM,222 µM,222 µM,56 µM,444 µM,444 µM,7 µM,470 µM,MIC (Candida albicans [35]): 59 µM; MIC (Candida tropicalis): 470 µM; MIC (Candida parapsilosis): 470 µM
CCOC(=O)C1=C(CN2CCN(C(=O)/C(=N/OC)c3csc(N)n3)CC2)NC(=O)NC1c1ccc(OC)c(OC)c1OC (centres undefined),415 µM,208 µM,208 µM,26 µM,208 µM,208 µM,208 µM,415 µM,104 µM,208 µM,415 µM,104 µM,52 µM,52 µM,52 µM,104 µM,104 µM,104 µM,104 µM,398 µM,MIC (Candida albicans [35]): 398 µM; MIC (Candida tropicalis): 398 µM; MIC (Candida parapsilosis): 398 µM
CCOC(=O)C1=C(CN2CCN(C(=O)/C(=N/OC)c3csc(N)n3)CC2)NC(=O)NC1c1ccc(OC)cc1 (centres undefined),230 µM,115 µM,58 µM,230 µM,115 µM,230 µM,115 µM,230 µM,115 µM,115 µM,58 µM,115 µM,230 µM,230 µM,230 µM,230 µM,230 µM,230 µM,115 µM,470 µM,MIC (Candida albicans [35]): 7 µM; MIC (Candida tropicalis): 470 µM; MIC (Candida parapsilosis): 470 µM
CCCCc1nc(Cl)c(C2NC(=O)NC(CN3CCN(CC(=O)c4ccccc4)CC3)=C2C(=O)OCC)[nH]1 (centres undefined),236 µM,59 µM,236 µM,236 µM,472 µM,59 µM,59 µM,236 µM,236 µM,472 µM,59 µM,118 µM,59 µM,118 µM,118 µM,118 µM,118 µM,118 µM,118 µM,472 µM,MIC (Candida albicans [35]): 15 µM; MIC (Candida tropicalis): 472 µM; MIC (Candida parapsilosis): 472 µM
CCOC(=O)C1=C(CN2CCN(C(=O)/C(=N/OC)c3csc(N)n3)CC2)NC(=O)NC1c1ccc(O)c(OC)c1 (centres undefined),112 µM,28 µM,14 µM,48 µM,112 µM,56 µM,56 µM,112 µM,112 µM,112 µM,56 µM,95 µM,48 µM,48 µM,48 µM,48 µM,95 µM,95 µM,48 µM,444 µM,MIC (Candida albicans [35]): 444 µM; MIC (Candida tropicalis): 444 µM; MIC (Candida parapsilosis): 444 µM
CCOC(=O)C1=C(CN2CCN(C(=O)/C(=N/OC)c3csc(N)n3)CC2)NC(=O)NC1c1ccc(F)cc1F (centres undefined),114 µM,28 µM,28 µM,114 µM,57 µM,28 µM,57 µM,57 µM,57 µM,114 µM,57 µM,114 µM,57 µM,57 µM,57 µM,28 µM,114 µM,114 µM,57 µM,464 µM,MIC (Candida albicans [35]): 15 µM; MIC (Candida tropicalis): 464 µM; MIC (Candida parapsilosis): 464 µM
